Values of other authors in PubChem BioAssay AID1259409 (Chemical Carcinogenesis Research Information System (CCRIS), 2018).

Test system: rodent chemically induced tumor inhibition, incidence and multiplicity
Experiment: CCRIS tumor inhibitor studies
Details: for tumour outcome (control, treated, inhibition, significance): Dose [Inhibitor]: 0, Promoter: NONE USED
Source text: The CCRIS database contains chemical records with carcinogenicity, mutagenicity, tumor promotion, and tumor inhibition test results. It was developed by the National Cancer Institute (NCI). Data are derived from studies cited in primary journals, current awareness tools, NCI reports, and other sources. Test results have been reviewed by experts in carcinogenesis and mutagenesis.
CCRIS provides historical information from the years 1985 - 2011. It is no longer updated.
This is an archive assay for CCRIS tumor inhibitor studies.

Q: For `O=C(/C=C/C=C/c1ccc2c(c1)OCO2)N1CCCCC1`, which “tumour outcome (control, treated, inhibition, significance)” value (Carcinogen: METHYLCHOLANTHRENE, 56-49-5, 5.5 MG IN 0.05 ML SUNFLOWER OIL 1/WK FOR 1 YR BEGINNING POST CARCINOGEN TREATMENT (STUDY DURATION: 24 MO), Route [Inhibitor]: GAVAGE, Species: MOUSE, Strain/Sex: SWISS/FEMALE, Target Tissue: Type of Lesion: LUNG: PAPILLARY ADENOMA AND ADENOCARCINOMA, Dose [Carcinogen]: 0.01 MG ON D 1, 7, 14 AND 21 AFTER BIRTH) is on record?
A: 7/11 (64%), 9/12 (75%), -17%, not calculated

Q: And the “tumour outcome (control, treated, inhibition, significance)” value (Carcinogen: METHYLCHOLANTHRENE, 56-49-5, 5.5 MG IN 0.05 ML SUNFLOWER OIL 1/WK FOR 1 YR BEGINNING POST CARCINOGEN TREATMENT (STUDY DURATION: 24 MO), Route [Inhibitor]: GAVAGE, Species: MOUSE, Strain/Sex: SWISS/MALE, Target Tissue: Type of Lesion: LIVER: HEPATOCELLULAR ADENOMA AND CARCINOMA)?
A: 3/13 (23%), 4/13 (31%), -35%, not calculated

Q: What about the “tumour outcome (control, treated, inhibition, significance)” value (Carcinogen: METHYLCHOLANTHRENE, 56-49-5, 5.5 MG IN 0.05 ML SUNFLOWER OIL 1/WK FOR 1 YR BEGINNING POST CARCINOGEN TREATMENT (STUDY DURATION: 24 MO), Route [Inhibitor]: GAVAGE, Species: MOUSE, Strain/Sex: SWISS/MALE, Target Tissue: Type of Lesion: LUNG: PAPILLARY ADENOMA AND ADENOCARCINOMA, Dose [Carcinogen]: 0.01 MG ON D 1, 7, 14 AND 21 AFTER BIRTH) of the same molecule?
A: 10/13 (77%), 10/13 (77%), 0%, not significant

Q: What about the “tumour outcome (control, treated, inhibition, significance)” value (Carcinogen: METHYLCHOLANTHRENE, 56-49-5, 5.5 MG IN 0.05 ML SUNFLOWER OIL 1/WK FOR 1 YR BEGINNING POST CARCINOGEN TREATMENT (STUDY DURATION: 24 MO), Route [Inhibitor]: GAVAGE, Species: MOUSE, Strain/Sex: SWISS/MALE, Target Tissue: Type of Lesion: SKIN: SARCOMA AND CARCINOMA, Dose [Carcinogen]: 0.01 MG ON D 1, 7, 14 AND 21 AFTER BIRTH) of the same molecule?
A: 5/13 (38%), 2/13 (15%), 61%, not calculated

Q: And the “tumour outcome (control, treated, inhibition, significance)” value (Carcinogen: METHYLCHOLANTHRENE, 56-49-5, 5.5 MG IN 0.05 ML SUNFLOWER OIL 1/WK FOR 1 YR BEGINNING POST CARCINOGEN TREATMENT (STUDY DURATION: 24 MO), Route [Inhibitor]: GAVAGE, Species: MOUSE, Strain/Sex: SWISS/MALE, Target Tissue: Type of Lesion: SPLEEN: LYMPHOMA, Dose [Carcinogen]: 0.01 MG ON D 1, 7, 14 AND 21 AFTER BIRTH)?
A: 2/13 (15%), 3/13 (23%), -53%, not calculated

Q: And the “tumour outcome (control, treated, inhibition, significance)” value (Carcinogen: SAFROLE, 94-59-7, 5.5 MG IN 0.05 ML SUNFLOWER OIL 1/WK FOR 1 YR BEGINNING POST CARCINOGEN TREATMENT (STUDY DURATION: 24 MO), Route [Inhibitor]: GAVAGE, Species: MOUSE, Strain/Sex: SWISS/FEMALE, Target Tissue: Type of Lesion: LUNG: PAPILLARY ADENOCARCINOMA, Dose [Carcinogen]: 0.2 MG ON D 1 AND 7 AFTER BIRTH THEN 0.4 MG ON D 14 AND 21)?
A: 3/18 (17%), 2/19 (11%), 35%, not calculated

Q: What about the “tumour outcome (control, treated, inhibition, significance)” value (Carcinogen: SAFROLE, 94-59-7, 5.5 MG IN 0.05 ML SUNFLOWER OIL 1/WK FOR 1 YR BEGINNING POST CARCINOGEN TREATMENT (STUDY DURATION: 24 MO), Route [Inhibitor]: GAVAGE, Species: MOUSE, Strain/Sex: SWISS/FEMALE, Target Tissue: Type of Lesion: SKIN: SARCOMA, Dose [Carcinogen]: 0.2 MG ON D 1 AND 7 AFTER BIRTH THEN 0.4 MG ON D 14 AND 21) of the same molecule?
A: 2/18 (11%), 0/19 (0%), 100%, not calculated

Q: And the “tumour outcome (control, treated, inhibition, significance)” value (Carcinogen: SAFROLE, 94-59-7, 5.5 MG IN 0.05 ML SUNFLOWER OIL 1/WK FOR 1 YR BEGINNING POST CARCINOGEN TREATMENT (STUDY DURATION: 24 MO), Route [Inhibitor]: GAVAGE, Species: MOUSE, Strain/Sex: SWISS/MALE, Target Tissue: Type of Lesion: LIVER: HEPATOCELLULAR CARCINOMA, Dose [Carcinogen]: 0.2 MG ON D 1 AND 7 AFTER BIRTH THEN 0.4 MG ON D 14 AND 21)?
A: 7/24 (29%), 1/23 (4%), 86%, p<0.05

Q: What about the “tumour outcome (control, treated, inhibition, significance)” value (Carcinogen: SAFROLE, 94-59-7, 5.5 MG IN 0.05 ML SUNFLOWER OIL 1/WK FOR 1 YR BEGINNING POST CARCINOGEN TREATMENT (STUDY DURATION: 24 MO), Route [Inhibitor]: GAVAGE, Species: MOUSE, Strain/Sex: SWISS/MALE, Target Tissue: Type of Lesion: LUNG: PAPILLARY ADENOCARCINOMA, Dose [Carcinogen]: 0.2 MG ON D 1 AND 7 AFTER BIRTH THEN 0.4 MG ON D 14 AND 21) of the same molecule?
A: 5/24 (21%), 2/23 (9%), 57%, not calculated

Q: And the “tumour outcome (control, treated, inhibition, significance)” value (Carcinogen: SAFROLE, 94-59-7, 5.5 MG IN 0.05 ML SUNFLOWER OIL 1/WK FOR 1 YR BEGINNING POST CARCINOGEN TREATMENT (STUDY DURATION: 24 MO), Route [Inhibitor]: GAVAGE, Species: MOUSE, Strain/Sex: SWISS/MALE, Target Tissue: Type of Lesion: SKIN: SARCOMA, Dose [Carcinogen]: 0.2 MG ON D 1 AND 7 AFTER BIRTH THEN 0.4 MG ON D 14 AND 21)?
A: 2/24 (8%), 0/23 (0%), 100%, not calculated

Q: And the “tumour outcome (control, treated, inhibition, significance)” value (Carcinogen: SAFROLE, 94-59-7, 5.5 MG IN 0.05 ML SUNFLOWER OIL 1/WK FOR 1 YR BEGINNING POST CARCINOGEN TREATMENT (STUDY DURATION: 24 MO), Route [Inhibitor]: GAVAGE, Species: MOUSE, Strain/Sex: SWISS/MALE, Target Tissue: Type of Lesion: SPLEEN: LYMPHOMA, Dose [Carcinogen]: 0.2 MG ON D 1 AND 7 AFTER BIRTH THEN 0.4 MG ON D 14 AND 21)?
A: 6/24 (25%), 3/23 (13%), 48%, not calculated

Q: And the “tumour outcome (control, treated, inhibition, significance)” value (Carcinogen: SAFROLE, 94-59-7, 5.5 MG IN 0.05 ML SUNFLOWER OIL 1/WK FOR 1 YR BEGINNING POST CARCINOMA TREATMENT (STUDY DURATION: 24 MO), Route [Inhibitor]: GAVAGE, Species: MOUSE, Strain/Sex: SWISS/FEMALE, Target Tissue: Type of Lesion: SPLEEN: LYMPHOMA, Dose [Carcinogen]: 0.2 MG ON D 1 AND 7 AFTER BIRTH THEN 0.4 MG ON D 14 AND 21)?
A: 9/18 (50%), 7/19 (37%), 26%, not calculated

Q: And the “tumour outcome (control, treated, inhibition, significance)” value (Carcinogen: TANNIC ACID, 1401-55-4, 5.5 MG IN 0.05 ML SUNFLOWER OIL 1/WK FOR 1 YR BEGINNING POST CARCINOGEN TREATMENT (STUDY DURATION: 24 MO), Route [Inhibitor]: GAVAGE, Species: MOUSE, Strain/Sex: SWISS/FEMALE, Target Tissue: Type of Lesion: LUNG: PAPILLARY ADENOCARCINOMA, Dose [Carcinogen]: 25 MG/KG BW ON D 1, 7, 14 AND 21 AFTER BIRTH)?
A: 2/8 (25%), 1/9 (11%), 56%, not calculated

Q: What about the “tumour outcome (control, treated, inhibition, significance)” value (Carcinogen: TANNIC ACID, 1401-55-4, 5.5 MG IN 0.05 ML SUNFLOWER OIL 1/WK FOR 1 YR BEGINNING POST CARCINOGEN TREATMENT (STUDY DURATION: 24 MO), Route [Inhibitor]: GAVAGE, Species: MOUSE, Strain/Sex: SWISS/FEMALE, Target Tissue: Type of Lesion: SPLEEN: LYMPHOMA, Dose [Carcinogen]: 25 MG/KG BW ON D 1, 7, 14 AND 21 AFTER BIRTH) of the same molecule?
A: 4/8 (50%), 4/9 (44%), 12%, not calculated

Q: And the “tumour outcome (control, treated, inhibition, significance)” value (Carcinogen: TANNIC ACID, 1401-55-4, 5.5 MG IN 0.05 ML SUNFLOWER OIL 1/WK FOR 1 YR BEGINNING POST CARCINOGEN TREATMENT (STUDY DURATION: 24 MO), Route [Inhibitor]: GAVAGE, Species: MOUSE, Strain/Sex: SWISS/MALE, Target Tissue: Type of Lesion: LUNG: PAPILLARY ADENOCARCINOMA, Dose [Carcinogen]: 25 MG/KG BW ON D 1, 7, 14 AND 21 AFTER BIRTH)?
A: 3/12 (25%), 2/12 (17%), 32%, not calculated

Q: And the “tumour outcome (control, treated, inhibition, significance)” value (Carcinogen: TANNIC ACID, 1401-55-4, 5.5 MG IN 0.05 ML SUNFLOWER OIL 1/WK FOR 1 YR BEGINNING POST CARCINOGEN TREATMENT (STUDY DURATION: 24 MO), Route [Inhibitor]: GAVAGE, Species: MOUSE, Strain/Sex: SWISS/MALE, Target Tissue: Type of Lesion: SPLEEN: LYMPHOMA, Dose [Carcinogen]: 25 MG/KG BW ON D 1, 7, 14 AND 21 AFTER BIRTH)?
A: 5/12 (42%), 3/12 (25%), 40%, not calculated

Q: For `N[C@@H](Cc1cc(I)c(Oc2cc(I)c(O)c(I)c2)c(I)c1)C(=O)O`, which outcome (Carcinogen: N-METHYL-N-NITROSOUREA [684-93-5], Dose [Inhibitor]: 3 UG/ML IN DRINKING WATER, 2 WKS BEFORE CARCINOGEN AND FOR 26 WKS AFTER, Route [Inhibitor]: DRINKING WATER, Species: RAT, Strain/Sex: SPRAGUE-DAWLEY/FEMALE, Target Tissue: Type of Lesion: MAMMARY GLAND: CARCINOMA, Dose [Carcinogen]: 50 MG/KG BW ONCE AT 7 WKS OF AGE (IN SALINE SOLUTION)) is on record?
A: 8/11 (73%) vs 9/11 (82%) at 16 wks

Q: Which “tumour outcome (control, treated, inhibition, significance)” value (Carcinogen: AZOXYMETHANE, 25843-45-2, 0.02% IN DIET FOR 4 WK BEGINNING AT TIME OF CARCINOGEN TREATMENT (STUDY DURATION: 33 WK), Route [Inhibitor]: ORAL, Species: RAT, Strain/Sex: F344/MALE, Target Tissue: Type of Lesion: INTESTINE: ADENOMA OR ADENOCARCINOMA, Dose [Carcinogen]: 15 MG/KG BW 1/WK FOR 3 WK) does the source give for `C=C1C(=O)O[C@@H]2/C=C(\C)CCC=C(C)CC[C@@H]12` here?
A: 15/30 (50%), 5/29 (17%), 66%, p<0.05
